{"source": "ChEMBL document CHEMBL1132670", "about": "“Combinatorial search of substituted beta-cyclodextrins for phosphatase-like activity” (Bioorg Med Chem Lett, 1999)", "test": "Pseudo-first-order rate constant was determined by hydrolysis p-NPP in the presence of Zn 2+ at 37 C", "type": "ADME"}
{"smiles": "OC[C@H]1O[C@@H]2O[C@H]3[C@H](O)[C@@H](O)[C@@H](O[C@H]4[C@H](O)[C@@H](O)[C@@H](O[C@H]5[C@H](O)[C@@H](O)[C@@H](O[C@H]6[C@H](O)[C@@H](O)[C@@H](O[C@H]7[C@H](O)[C@@H](O)[C@@H](O[C@H]8[C@H](O)[C@@H](O)[C@@H](O[C@H]1[C@H](O)[C@H]2O)O[C@@H]8CO)O[C@@H]7CO)O[C@@H]6CO)O[C@@H]5CO)O[C@@H]4CO)O[C@@H]3CO", "note": "[BETADEX]", "values": [{"measurement": "K obs", "result": "4.16e-07", "unit": "s⁻¹"}]}
